Measured values from patent US5668147A, “Quinolinecarboxylic acid derivatives and salts thereof” (Kaken Pharmaceutical Co., Ltd., priority 1993, dated 1997).

Experiments:
[1] = tested on: S. aureus Smith; test: Antibacterial activity, MIC by agar plate dilution assay; assay type: cell-based; parameters: unit not given here
Method: (§1) Antibacterial activities of the compounds of the present invention were measured as the minimum inhibitory concentration (MIC) by the agar plate dilution assay method according to the standard method of Japan Society of Chemotherapy. Ofloxacin (OFLX) was used as the control compound.

[2] = tested on: E. coli JC3; test: as above; assay type: cell-based; parameters: unit not given here
Method: as §1

[3] = tested on: S. aureus KP90-3 (MRSA); test: as above; assay type: cell-based; parameters: unit not given here
Method: as §1

[4] = tested on: S. pyogenes Cook; test: as above; assay type: cell-based; parameters: unit not given here
Method: as §1

[5] = tested on: E. faecalis 1373; test: as above; assay type: cell-based; parameters: unit not given here
Method: as §1

[6] = tested on: S. aureus JS1 (MRSA); test: as above; assay type: cell-based; parameters: unit not given here
Method: as §1

[7] = Acute toxicity test, oral, ICR mice; conditions: mouse, in vivo, 6-week-old ICR mice, orally, suspended in 0.5% methylcellulose
Method: Acute toxicity test was performed using 6-week-old ICR mice. The compound of Example 21a was used as the tested compound. The compound was suspended in a 0.5% solution of methylcellulose, and the suspension was orally administered. The value of LD50 was at least 4000 mg/kg.

[8] = tested on: peripheral blood erythrocytes; test: Mutagenicity, micronucleus assay in mice; assay type: in vivo; conditions: 8-week-old ICR mice; abdominally administered in olive oil; dose 200 mg/kg; before and 24, 48 and 72 hours after
Method: Micronucleus assay was performed using 8-week-old ICR mice to confirm whether the compounds have mutagenicity. The compound of Example 21a was suspended in olive oil, and the suspension was abdominally administered to mice. The peripheral blood was obtained before and 24, 48 and 72 hours after the administration, and smeared specimens of the peripheral blood were prepared by acridine orange dying. In each specimen, 1000 erythrocytes were observed and frequency of occurrence of micronucleus was recorded. The frequency was not changed even in dose 200 mg/kg.

SMILES | Minimum Inhibitory Concentration (MIC) [1] | Minimum Inhibitory Concentration (MIC) [2] | Minimum Inhibitory Concentration (MIC) [3] | Minimum Inhibitory Concentration (MIC) [4] | Minimum Inhibitory Concentration (MIC) [5] | Minimum Inhibitory Concentration (MIC) [6] | LD50 [7] | frequency of occurrence of micronucleus [8]
O=C(O)c1cn(C2CC2)c2c(F)c(N3C[C@@H](CO)[C@H](C(F)(F)F)C3)c(F)cc2c1=O (relative stereo) [Example 6a, 1-Cyclopropyl-6,8-difluoro-1,4-dihydro-7-(trans-3-hydroxymethyl-4-trifluoromethyl-1-pyrrolidinyl)-4-oxoquinoline-3-carboxylic acid] | 0.025 | 0.39 | 3.13 | 0.39 | 0.39 | 0.05 | – | –
O=C(O)c1cn(C2CC2)c2c(Cl)c(N3C[C@@H](CO)[C@H](C(F)(F)F)C3)c(F)cc2c1=O (relative stereo) [Example 7a] | ≤ 0.006 | 0.39 | 0.39 | 0.1 | 0.2 | 0.013 | – | –
Nc1c(F)c(N2C[C@@H](CO)[C@H](C(F)(F)F)C2)c(F)c2c1c(=O)c(C(=O)O)cn2C1CC1 (relative stereo) [Example 8a] | ≤ 0.006 | 0.2 | 3.13 | 0.39 | 0.2 | 0.013 | – | –
COc1c(N2C[C@@H](CO)[C@H](C(F)(F)F)C2)c(F)cc2c(=O)c(C(=O)O)cn(C3CC3)c12 (relative stereo) [Example 9a, 1-Cyclopropyl-6-fluoro-1,4-dihydro-7-(trans-3-hydroxymethyl-4-trifluoromethyl-1-pyrrolidinyl)-8-methoxy-4-oxoquinoline-3-carboxylic acid] | ≤ 0.006 | 0.39 | 0.78 | 0.2 | 0.2 | 0.013 | – | –
Cl.NC[C@@H]1CN(c2c(F)cc3c(=O)c(C(=O)O)cn(C4CC4)c3c2F)C[C@H]1C(F)(F)F (relative stereo) [Example 12a, 7-(Trans-3-aminomethyl-4-trifluoromethyl-1-pyrrolidinyl)-1-cyclopropyl-6,8-difluoro-1,4-dihydro-4-oxoquinoline-3-carboxylic acid hydrochloride] | 0.013 | 0.05 | 0.78 | 0.025 | 0.1 | 0.025 | – | –
NC[C@@H]1CN(c2c(F)cc3c(=O)c(C(=O)O)cn(C4CC4)c3c2Cl)C[C@H]1C(F)(F)F (relative stereo) [Example 15a] | ≤ 0.006 | 0.05 | 0.39 | 0.013 | 0.1 | 0.013 | – | –
NC[C@@H]1CN(c2c(F)c(N)c3c(=O)c(C(=O)O)cn(C4CC4)c3c2F)C[C@H]1C(F)(F)F (relative stereo) [Example 18a] | ≤ 0.006 | 0.025 | 1.56 | 0.013 | 0.05 | ≤ 0.006 | – | –
COc1c(N2C[C@@H](CN)[C@H](C(F)(F)F)C2)c(F)cc2c(=O)c(C(=O)O)cn(C3CC3)c12 (relative stereo) [Example 21a] | 0.013 | 0.1 | 0.78 | 0.025 | 0.1 | 0.013 | ≥ 4000 mg/kg | not changed
N[C@@H]1CN(c2c(F)cc3c(=O)c(C(=O)O)cn(C4CC4)c3c2F)C[C@H]1C(F)(F)F (relative stereo) [Example 23a] | 0.1 | 0.2 | 12.5 | 0.78 | 0.78 | 0.2 | – | –
N[C@@H]1CN(c2c(F)cc3c(=O)c(C(=O)O)cn(C4CC4)c3c2Cl)C[C@H]1C(F)(F)F (relative stereo) [Example 26a] | 0.05 | 0.2 | 3.13 | 0.39 | 0.39 | 0.05 | – | –
Nc1c(F)c(N2C[C@@H](N)[C@H](C(F)(F)F)C2)c(F)c2c1c(=O)c(C(=O)O)cn2C1CC1 (relative stereo) [Example 29a] | 0.025 | 0.05 | 25 | 0.2 | 0.39 | 0.05 | – | –
COc1c(N2C[C@@H](N)[C@H](C(F)(F)F)C2)c(F)cc2c(=O)c(C(=O)O)cn(C3CC3)c12 (relative stereo) [Example 31a] | 0.05 | 0.39 | 3.13 | 0.39 | 0.39 | 0.05 | – | –
N[C@@H]1CN(c2nc3c(cc2F)c(=O)c(C(=O)O)cn3-c2ccc(F)cc2F)C[C@H]1C(F)(F)F (relative stereo) [Example 35a] | 0.05 | 0.78 | 25 | 0.39 | 0.78 | 0.1 | – | –
CC1COc2c(N3CCN(C)CC3)c(F)cc3c(=O)c(C(=O)O)cn1c23 (centres unmarked) [OFLX, Ofloxacin, reference compound] | 0.2 | 0.1 | 25 | 0.78 | 1.56 | 0.39 | – | –
